Assay results reported in US20170296491A1, “PHARMACEUTICAL COMPOSITIONS COMPRISING LEVODOPA AMIDE AND USES THEREOF” (priority 2015, published 2017).

Legend:
[1] = peripheral administration; cited from earlier work
[2] = Plasma levels of LDA and LD after intravenous LDA-HCl in mice; type: in vivo
Protocol: (§1) The purpose of this experiment was to determine the plasma levels of LDA and LD following intravenous (IV) and oral (PO) administration of LDA-HCl in CD-1 mice.
(§2) CD-1 mice which were prepared for oral administration had to undergo fasting overnight prior to the dosing. The orally treated mice received food only 2 hour post-dosing. The method used to dose orally was oesophagotubage, and the IV mice were injected via a jugular vein under anesthesia (Isoflurane/O2). LDA-HCl solutions were dissolved in citrate buffer and LD/CD solution was prepared according to International Publication No. WO 2010/134074.
(§3) Blood samples were collected following the oral and IV dosing at pre-determined time points and plasma levels of LDA and LD were analysed by LC-MS-MS.

[3] = Plasma pharmacokinetics of LDA and LD after oral LDA-HCl with and without CD in rats; type: in vivo; conditions: oral LDA-HCl 25 mg/kg
Protocol: The purpose of this experiment was to determine the plasma pharmacokinetics of LDA and LD following oral administration of LD or LDA-HCl with and without CD in Wistar rats.
Wistar rats underwent fasting overnight prior to the dosing and received food only 2 hour post-dosing. The method used to dose orally was via oesophagotubage. Solutions were prepared as described above.

[4] = Plasma levels of LDA and LD after oral LDA-HCl in mice; type: in vivo
Protocol: as §1, §2, §3

[5] = Effect of preparation method and pH on stability of LDA-HCl/CD formulations; type: physicochemical; conditions: 5 days at room temperature (Table 7)
Protocol: LDA-HCl/CD formulations were prepared by the following methods, and were then tested for stability. Method 1. Carbidopa (CD, powder) [Teva Pharmaceuticals Ltd., Israel] was added to LDA-HCl solution. […] Precipitation occurred at room temperature. Method 2. Liquid CD formulations were prepared by weighting CD [Teva Pharmaceuticals Ltd., Israel] in a suitable container with different L-arginine [Merck] weights to obtain a final concentration of 0.8% CD (wet form, 0.75% dry form) in different molar ratios to arginine (Table 6). CD formulations were prepared as described in the International Publication No. WO 2010/134074. LDA-HCl (powder) was added to CD solutions to attain the final desired concentration of LDA-HCl/CD formulations. Method 3. CD solutions (40 mg/ml, prepared as described in the International Publication No. WO 2010/134074) were mixed with LDA-HCl solutions to attain the final desired concentration of LDA/CD formulations. The LDA-HCl formulations were prepared by dissolving 200, 160 or 120 mg/ml of LDA-HCl in 40 mM citric buffer. The chemical stability of 7 LDA-HCl/CD formulations was evaluated by HPLC analysis at t0 and after 5 days at room temperature. The recovery after 5 days at room temperature was calculated compared to t0 (Table 7).

[6] = Solubility of LDA in water in the absence of an acid; type: physicochemical; conditions: water with and without 0.3% Tween-80, absence of an acid; data not shown
From the text: LDA in water with and without 0.3% Tween-80, at concentrations greater than 2.5% (data not shown), is not soluble in the absence of an acid.

[7] = Dissolution and stability of LDA in organic acid solutions; type: physicochemical; conditions: for Chemical stability after 3 days at RT: in % (unit assumed)
Protocol: The effect of organic acids on the stability of LDA solution was evaluated. Formulations were prepared by adding small aliquots of organic acid solutions, 100-300 μl, to ˜240 mg LDA until full dissolution while pH was monitored. The end point of acid addition was decided by appearance and/or by pH and/or total volume. LDA concentration was determined by HPLC.

[8] = Physical stability of LDA-HCl solutions with or without added CD-Arg formulation; type: physicochemical; conditions: 0.75% CD; CD:Arg 1:1.25; LDA:HCl 1:0.92; pH 5.69; time points not separated
Protocol: HCl solutions at 3 different concentrations containing 0.3% Tween 80 were added to LDA to obtain solutions having a final LDA concentration of 200 mg/ml and a molar ratio of 1:0.89, 1:0.92 and 1:0.95 LDA:HCl. CD-Arg formulation (CD:Arg molar ratio 1:1.25) was prepared in Tween 80 0.3% and was added gradually under stirring to 4 volumes of each of the 3 LDA-HCl solutions. The physical stability of the solutions was evaluated (Table 15). As shown, the addition of CD to LDA-HCl solutions yielded stable solutions if added to LDA-HCl solutions having a pH>3.8, preferably pH >4.6.

[9] = Stability of LDA 200 mg/ml solution with HCl; type: physicochemical
Protocol: The effect of HCl, representing an inorganic acid, on the stability of LDA solution was evaluated. HCl solution containing 0.3% Tween 80 was added to LDA to obtain a solution having a final LDA concentration of 200 mg/ml and a molar ratio of about 1:1 LDA:HCl. The physical stability of the solution and the chemical stability of LDA were evaluated (Table 13). As shown, LDA (200 mg/ml) is stable for at least 9 days in solution containing HCl at a molar ratio of about 1:1.

Structure (SMILES): N[C@@H](Cc1ccc(O)c(O)c1)C(=O)O [LD, L-3,4-dihydroxyphenylalanine, reference compound]
- share of administered levodopa that enters the brain unaltered [1]: 1-3%
- LD plasma level ([2]; IV LDA-HCl 20 mg/kg, 3 h thereafter): below limit of quantification

Structure (SMILES): NC(=O)C(N)Cc1ccc(O)c(O)c1 (stereo not drawn) [LDA, 2-amino-3-(3,4-dihydroxyphenyl)propanamide]
- metabolism of LDA to LD [3]: rapidly metabolized to LD
- bioavailability ([4]; administered orally): low
- metabolism of LDA to LD ([4]; oral administration of LDA-HCl 20 mg/kg): rapidly metabolized to LD
- chemical stability in LDA-HCl/CD formulations [5]: pH-dependent
- soluble concentration in water [6]: ≤ 2.5%
- Chemical stability after 3 days at RT ([7]; Acetic acid, LDA:acid 1:1.2, pH 5.0): 98.4
- Chemical stability after 3 days at RT ([7]; Citric acid, LDA:acid 1:08, pH 2.8): 99.3
- time physically and chemically stable at RT ([7]; LDA dissolved in organic acid solutions): at least 3 days
- Chemical stability after 3 days at RT ([7]; Succinic acid, LDA:acid 1:0.5, pH 5.7): 99.1
- Chemical stability after 3 days at RT ([7]; Tartaric acid, LDA:acid 1:0.6, pH 3.8): 100.5
- LDA ([7]; dissolved with Acetic acid, pH 5.0): 199 mg/mL
- LDA ([7]; dissolved with Citric acid, pH 2.8): 236 mg/mL
- LDA ([7]; dissolved with Citric acid, pH 5.6): 175 mg/mL
- LDA ([7]; dissolved with Glutamic acid, pH 5.8): 128 mg/mL
- LDA ([7]; dissolved with Succinic acid, pH 5.7): 194 mg/mL
- LDA ([7]; dissolved with Tartaric acid, pH 3.8): 334 mg/mL
- LDA plasma level ([2]; IV LDA-HCl 20 mg/kg, 1 h thereafter): below limit of quantification
- metabolism of LDA to LD ([2]; IV administration of LDA-HCl 20 mg/kg): rapidly metabolized to LD
- half-life of LDA compared with LD ([2]; IV and oral administration of LDA-HCl): shorter than that of LD
- Precipitations [8]: Slight
- time stable in solution ([9]; HCl at a molar ratio of about 1:1): at least 9 days
- Chemical stability of LDA 9 days ([9]; LDA:HCl molar ratio 1:0.94, pH 5.81, 0.3% Tween 80, in % (unit assumed)): 100.1
